# Measurements from US7910750B2, “Artemisinin (qinghaosu) derivatives, their preparation methods and their use, and pharmaceutical compositions containing the same” (Shanghai Institute of Materia Medica, Chinese Academy of …, priority 2005, dated 2011).
# Legend:
# T lymphocyte = experiment: Lymphocyte proliferation test, T lymphocyte proliferation response induced by ConA ([3H]-thymidine); type: cell-based, mouse; details: mouse spleen cells, ConA, 48 hours; read-out: Inhibiting activity of T lymphocyte proliferation response induced by ConA IC50
# Experimental: B. Lymphocyte Proliferation Test […] […] 3. After incubated in 5% CO2 incubator at 37° C. for 48 hours, 0.5 μCi [^3H]-thymidine (25 μL/well) was added into each well 7-8 hours before the termination of the incubation. 4.
# B lymphocyte = experiment: Lymphocyte proliferation test, B lymphocyte proliferation response induced by LPS ([3H]-thymidine); type: cell-based, mouse; details: mouse spleen cells, LPS, 48 hours; read-out: Inhibiting activity of B lymphocyte proliferation response induced by LPS IC50
# Experimental: 3. After incubated in 5% CO2 incubator at 37° C. for 48 hours, 0.5 μCi [^3H]-thymidine (25 μL/well) was added into each well 7-8 hours before the termination of the incubation. 4.
# [1] = tested on: BALB/c mouse spleen cells; experiment: Lymphocytotoxicity test (MTT); type: cell-based; details: mouse spleen cells, 48 hours, read-out: Lymphocytotoxicity CC50
# Experimental: A. Lymphocytotoxicity Test
# 1. BALB/c mice were killed by cervical dislocation, and their spleens were removed aseptically. A single spleen cell suspension was prepared and cell debris and clumps were removed.
# 2. 80 μL cell suspension, 40 μL testing sample, 40 μL medium containing 10% FBS were added into 96 well plate; for the control group, 80 μL medium was added the total volume was 160 μL, and blank control group was set.
# 3. After incubated in 5% CO2 incubator at 37° C. for 48 hours, 16 μL MTT (5 mg/mL) reagent was added into each well 6-7 hours before the termination of the incubation.
smiles,measurement,setting,value
"CC(C(=O)O)c1ccc(OC2OC3OC4(C)CCC5C(C)CCC(C2C)C35OO4)cc1 (stereo not drawn) [compound 22, 2-[4-(12β-artemisininoxy)phenyl] propanoic acid]",IC50,T lymphocyte,3.6 µM
same,IC50,B lymphocyte,8600 nM
same,CC50,[1],59.6 µM
"COc1ccccc1OC(=O)C(C)c1ccc(OC2OC3OC4(C)CCC5C(C)CCC(C2C)C35OO4)cc1 (stereo not drawn) [compound 23, o-methoxy-phenyl 2-[4-(12β-artemisininoxy)phenyl] propionate]",IC50,T lymphocyte,0.527 µM
same,IC50,B lymphocyte,94.7 nM
same,CC50,[1],5.33 µM
"CCOC(=O)C(C)Oc1ccc(OC2OC3OC4(C)CCC5C(C)CCC(C2C)C35OO4)cc1 (stereo not drawn) [compound 24, ethyl 2-[4-(12β-artemisininoxy)phenoxy] propionate]",IC50,T lymphocyte,0.26 µM
same,IC50,B lymphocyte,850 nM
same,CC50,[1],17.6 µM
"CC(Oc1ccc(OC2OC3OC4(C)CCC5C(C)CCC(C2C)C35OO4)cc1)C(=O)O (stereo not drawn) [compound 25, 2-[4-(12β-artemisininoxy)phenoxy] propanoic acid]",IC50,T lymphocyte,7.27 µM
same,IC50,B lymphocyte,860 nM
same,CC50,[1],24.3 µM
"COc1ccccc1OC(=O)C(C)Oc1ccc(OC2OC3OC4(C)CCC5C(C)CCC(C2C)C35OO4)cc1 (stereo not drawn) [compound 26, o-methoxy-phenyl 2-[4-(12β-artemisininoxy)phenoxy] propionate]",IC50,T lymphocyte,2.33 µM
same,IC50,B lymphocyte,270 nM
same,CC50,[1],39.1 µM
"COc1ccccc1OC(=O)C(C)Oc1cccc(OC2OC3OC4(C)CCC5C(C)CCC(C2C)C35OO4)c1 (stereo not drawn) [compound 27, o-methoxy-phenyl 2-[3-(12β-Artemisininoxy)phenoxy] propionate]",IC50,T lymphocyte,4.12 µM
same,IC50,B lymphocyte,570 nM
same,CC50,[1],2.99 µM
"CCOC(=O)C(C)Oc1cccc(OC2OC3OC4(C)CCC5C(C)CCC(C2C)C35OO4)c1 (stereo not drawn) [compound 28, ethyl 2-[3-(12α-artemisininoxy)phenoxy] propionate]",IC50,T lymphocyte,3.59 µM
same,IC50,B lymphocyte,560 nM
same,CC50,[1],2.99 µM
"CC(Oc1cccc(OC2OC3OC4(C)CCC5C(C)CCC(C2C)C35OO4)c1)C(=O)O (stereo not drawn) [compound 29, 2-[3-(12α-artemisininoxy)phenoxy] propanoic acid]",IC50,T lymphocyte,8.6 µM
same,IC50,B lymphocyte,740 nM
same,CC50,[1],35.1 µM
"COc1ccccc1OC(=O)C(C)Oc1cccc(OC2OC3OC4(C)CCC5C(C)CCC(C2C)C35OO4)c1 (stereo not drawn) [compound 30, o-methoxy-phenyl 2-[3-(12α-artemisininoxy)phenoxy] propionate]",IC50,T lymphocyte,5.73 µM
same,IC50,B lymphocyte,820 nM
same,CC50,[1],8.23 µM
